In the NIST ThermoML archive (doi:10.1021/je900660x):

Legend:
[1] = for mass density / viscosity / thermal conductivity: 101.33 kPa, Liquid; for mass density: Vibrating tube method; for thermal conductivity: Hot wire method; for Glass transition temperature: DTA
[2] = molar heat capacity at constant pressure; conditions: 101.33 kPa, Liquid, Large sample (1 g) DSC

CCCC[P+](CCCC)(CCCC)CCCC.NCCCC[C@H](N)C(=O)[O-] [tetrabutylphosphonium L-lysinate]
Conditions	mass density, [1] [kg/m3]	molar heat capacity at constant pressure, [2] [J/K/mol]	thermal conductivity, [1] [W/m/K]	viscosity, [1] [mPa·s]
293.15 K	970.5	987.3	–	–
298.15 K	967.5	997.4	0.163	741
303.15 K	964.4	1004.3	0.163	519.8
313.15 K	958.4	1021.3	0.162	268.7
323.15 K	952.3	1040.3	0.161	149.7
333.15 K	946.2	1060.1	0.16	90.4
343.15 K	940.3	1077.9	0.159	59.8
353.15 K	934.4	1096.5	0.158	39.7
363.15 K	928.6	1111.5	–	27.5

Conditions	Glass transition temperature [°C]
[1]	-66.7

CCCC[P+](CCCC)(CCCC)CCCC.O=C([O-])[C@@H]1CCCN1 [tetrabutylphosphonium L-prolinate]
Conditions	mass density, [1] [kg/m3]	molar heat capacity at constant pressure, [2] [J/K/mol]	thermal conductivity, [1] [W/m/K]	viscosity, [1] [mPa·s]
293.15 K	995.7	838	–	–
298.15 K	992.5	844.2	0.154	1695
303.15 K	989.1	850.4	0.153	1101
313.15 K	983	864.1	0.152	483.5
323.15 K	976.9	879.7	0.151	241.3
333.15 K	970.8	894.8	0.15	133.1
343.15 K	964.6	910.1	0.149	78.2
353.15 K	958.6	925.8	0.148	49.6
363.15 K	952.6	939.4	–	32.2

Conditions	Glass transition temperature [°C]
[1]	-65.87
